Results on 3 compounds are retold here after patent US20260250270A1, “Compound Used as Kinase Inhibitor and Use Thereof” (TYK MEDICINES, INC., priority 2022, published 2026).

Series [1] has as its system EGFR exon 20ins. The note with it: advanced non-small cell lung cancer; cited from earlier work.
Series [2] has as its system Lung cancer LU0387PDX model. The series can be described thus: Pharmacodynamic study on lung cancer LU0387PDX model. The note with it: LU0387 model, 30 mg/kg, P.O, QD * 13 days. It is filed as in vivo, mice. The source says: Lung cancer LU0387PDX model is a commonly used xenograft tumor model from Crown Bioscience, the experimental situation of this model is described as follows: after euthanasia of tumor-bearing mice, the tumor blocks were dissected out in aseptic condition, the blocks were cleaned to remove blood stains and connective tissues and necrotic parts, and the tumors were cut into small pieces of 2*2*2 mm^3, and inoculated with an adapter needle in sterilized experimental mice subcutaneously on the right dorsal side. Tumor growth was regularly observed, and when the tumors grew to an average volume of 100~200 mm^3, mice were randomly grouped according to tumor size and body weight for drug administration. Before the start of drug administration, all animals were weighed and the tumor volume was measured with vernier calipers. Mice were randomly grouped according to tumor volume to ensure that tumor volumes were similar between groups. Three mice in each group were administered orally once daily, and the inoculation site was observed after administration. Tumor volume and mouse body weight were measured twice a week. The experimental design and results were shown in Table 9, wherein P.O referred to administered orally; QD: once a day; TGI (Tumor volume inhibition rate)=(1-Tumor weight of the treatment group/Tumor weight of the control group)*100%.

Series [3] concerns PC9. The experiment in a line: Cell proliferation inhibition (CellTiter-Glo) on cell line PC9. It is filed as cell-based. The note with it: Homo sapiens, PC-9. The procedure: (§1) The cell lines NCI-H1975 and PC9 selected for the experiments were provided by Sino-American Guanke Biotechnology (Beijing) Co. and were validated prior to use in this study.
(§2) A 10× stock of the compound to be tested was prepared for use, with 9 concentrations in 4-fold gradient dilution, diluted from 10 μM.
(§3) The logarithmic growth phase cell suspension was inoculated into a 96-well culture plate with 90 μL volume per well (2000 cells/well). 10 μL of 10× Compound to be tested was added to the plate according to the plate spreading diagram, and then mixed well. The plate was incubated in a 5% CO2 incubator at 37° C. The proliferation inhibitory activity of the compound was determined by the CellTiter-Glo method. Cell proliferation inhibition rate (Inhibition Rate) data were plotted using GraphPad Prism 8.0 software for cell viability curves and IC50 values were calculated.

Series [4] has as its target Ba/F3-FL-EGFR-A763-Y764 ins FQEA (Homo sapiens, UniProt P00533, INS763FQEA, cells depend on it). The series can be described thus: Cell proliferation inhibition (CellTiter-Glo), EGFR exon 20 insertion engineered cells. It is filed as cell-based. The note with it: 72 h, read-out: IC50, Ba/F3-FL-EGFR A763-Y764ins FQEA. The procedure:
(§4) The selected engineering cells Ba/F3-FL-EGFR-V769-D770 ins ASV, Ba/F3-FL-EGFR-D770-N771 ins SVD, Ba/F3-FL-EGFR-H773-V774 ins NPH, Ba/F3-FL-EGFR-A763-Y764 ins FQEA, Ba/F3-HER2-A775-G776 ins YVMA were provided by Hefei PreceDo Biomedical Technology Co., LTD and were validated prior to use in this study.
(§5) A 20× stock of the compound to be tested was prepared for use, with 9 concentrations in 3-fold gradient dilution, diluted from 1 μM.
(§6) The logarithmic growth phase cell suspension was inoculated into 96-well white cell culture plates with 95 μL volume per well (2000 cells/well). 5 μL of 20× Compound to be tested was added to the plate containing 95 μL of cell suspension according to the plate spreading diagram, and then mixed well. The plate was incubated in a 5% CO2 incubator at 37° C. for 72 h. The proliferation inhibition activity of the compounds was determined by the CellTiter-Glo method, and the fluorescence value per well, RLU, was obtained from the SpectraMax Paradigm reading. Inhibition Rate data were processed using the following formula: Inhibition Rate (Inh %)=100−(RLU compound−RLU blank)/(RLU control−RLU blank)*100%. The cell viability corresponding to different concentrations of compounds was calculated in EXCEL, and then GraphPad Prism software was used to plot the cell viability curve and calculate the IC50 value.

Series [5] concerns the target Ba/F3-FL-EGFR-D770-N771 ins SVD (Homo sapiens, UniProt P00533, DUP768-770, cells depend on it). The series is described as above. It is filed as cell-based. The note with it: 72 h, read-out: IC50, Ba/F3-FL-EGFR D770-N771ins SVD. The procedure:
as §4, §5, §6

The target in series [6] is Ba/F3-FL-EGFR-V769-D770 ins ASV (Homo sapiens, UniProt P00533, DUP767-769, cells depend on it). The description is as above. The note with it: 72 h, read-out: IC50, Ba/F3-FL-EGFR V769-D770ins ASV. It is filed as cell-based. The procedure:
as §4, §5, §6

In series [7] the target is Ba/F3-FL-EGFR-H773-V774 ins NPH (Homo sapiens, UniProt P00533, DUP771-773, cells depend on it). Described as above. It is filed as cell-based. The note with it: 72 h, read-out: IC50, Ba/F3-FL-EGFR H773-V774ins NPH. The procedure:
as §4, §5, §6

Series [8] concerns NCI-H1975. The series can be described thus: Cell proliferation inhibition (CellTiter-Glo) on cell line NCI-H1975. It is filed as cell-based. The note with it: Homo sapiens. The procedure: as §1, §2, §3
In series [9] the target is Ba/F3-HER2-A775-G776 ins YVMA (Homo sapiens, UniProt P04626, DUP772-775, cells depend on it). The experiment in a line: Cell proliferation inhibition (CellTiter-Glo), HER2 exon 20 insertion engineered cells. It is filed as cell-based. The note with it: 72 h, CellTiter-Glo; read-out: IC50, Ba/F3-HER2-A775-G776ins YVMA. The procedure:
as §4, §5, §6

Series [10] concerns exon 20 insertion mutations in EGFR and HER2. The note with it: reported clinical trial results; cited from earlier work.
Series [11] in a line: Dynamic water vapor adsorption (DVS) test. It is filed as physicochemical.
A short description of series [12]: Stability experiment (left open, XRPD and liquid chromatography). It is filed as physicochemical. The note with it: left open at 80° C. 3 days, 60° C. 7 days, 25° C./60% RH 7 days, 40° C./75% RH 7 days, 25° C./90±5% RH 7 days. The procedure:
In the stability experiment, when the free base crystalline form I was left open at 80° C. for 3 days, 60° C. for 7 days, 25° C./60% RH for 7 days, 40° C./75% RH for 7 days, and 25° C./90±5% RH for 7 days, the samples were taken for XRPD detection, respectively.

The nature of series [13]: Solubility test by visual inspection in 18 solvents. It is filed as physicochemical. The note with it: room temperature. From the text:
The solubility of the free base crystalline form I of the compound of Example 1 was crudely determined by visual inspection in 18 solvents at room temperature. The free base crystalline form I was only highly soluble in dichloroethane and dichloromethane and poorly soluble in most of the solvents tested.

Series [14] is described as follows: Grinding experiment. It is filed as physicochemical.
Series [15] is described as follows: Competitive pulping of anhydrous crystalline forms I and V. It is filed as physicochemical. The note with it: saturated acetone and acetonitrile solutions, 25° C. or 50° C.
The nature of series [16]: Tablet pressing experiment. It is filed as physicochemical. The note with it: pressure 30 MPa.

≈ marks a conversion by molar mass, not a printed value. A value given as a limit tells only on which side of the number the result lay.

Chain of Ba/F3-FL-EGFR-V769-D770 ins ASV (P00533 with tags, fused parts or gaps DUP767-769): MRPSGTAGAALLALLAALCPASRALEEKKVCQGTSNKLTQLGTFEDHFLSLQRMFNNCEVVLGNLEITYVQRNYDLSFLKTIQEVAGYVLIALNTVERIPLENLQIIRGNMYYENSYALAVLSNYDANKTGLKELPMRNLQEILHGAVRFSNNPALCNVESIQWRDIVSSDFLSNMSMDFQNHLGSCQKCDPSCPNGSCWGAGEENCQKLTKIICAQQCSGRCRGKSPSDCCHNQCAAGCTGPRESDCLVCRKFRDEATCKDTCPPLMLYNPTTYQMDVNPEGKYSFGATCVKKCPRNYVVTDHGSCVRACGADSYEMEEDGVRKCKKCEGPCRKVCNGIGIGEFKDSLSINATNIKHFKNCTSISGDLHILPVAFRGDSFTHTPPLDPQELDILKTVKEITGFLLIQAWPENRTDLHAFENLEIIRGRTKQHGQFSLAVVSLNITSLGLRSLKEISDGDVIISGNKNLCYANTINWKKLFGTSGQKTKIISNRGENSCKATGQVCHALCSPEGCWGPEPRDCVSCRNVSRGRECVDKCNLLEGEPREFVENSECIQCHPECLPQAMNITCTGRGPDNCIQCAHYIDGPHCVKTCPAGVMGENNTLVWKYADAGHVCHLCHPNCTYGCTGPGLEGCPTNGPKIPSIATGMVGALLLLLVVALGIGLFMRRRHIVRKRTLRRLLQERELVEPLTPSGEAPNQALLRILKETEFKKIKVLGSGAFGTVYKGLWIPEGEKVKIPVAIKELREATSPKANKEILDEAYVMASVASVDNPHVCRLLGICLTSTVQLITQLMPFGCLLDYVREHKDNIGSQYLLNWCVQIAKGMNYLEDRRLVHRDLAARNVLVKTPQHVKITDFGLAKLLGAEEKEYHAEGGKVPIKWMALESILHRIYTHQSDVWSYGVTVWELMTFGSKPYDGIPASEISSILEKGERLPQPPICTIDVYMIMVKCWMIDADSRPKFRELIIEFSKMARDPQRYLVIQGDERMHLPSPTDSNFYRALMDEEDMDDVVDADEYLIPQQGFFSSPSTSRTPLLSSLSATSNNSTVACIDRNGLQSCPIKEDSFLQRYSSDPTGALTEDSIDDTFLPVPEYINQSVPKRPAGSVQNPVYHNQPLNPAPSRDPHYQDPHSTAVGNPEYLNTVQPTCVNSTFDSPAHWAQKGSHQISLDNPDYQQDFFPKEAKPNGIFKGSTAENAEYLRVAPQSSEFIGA
Chain of Ba/F3-FL-EGFR-A763-Y764 ins FQEA (P00533 with tags, fused parts or gaps INS763FQEA): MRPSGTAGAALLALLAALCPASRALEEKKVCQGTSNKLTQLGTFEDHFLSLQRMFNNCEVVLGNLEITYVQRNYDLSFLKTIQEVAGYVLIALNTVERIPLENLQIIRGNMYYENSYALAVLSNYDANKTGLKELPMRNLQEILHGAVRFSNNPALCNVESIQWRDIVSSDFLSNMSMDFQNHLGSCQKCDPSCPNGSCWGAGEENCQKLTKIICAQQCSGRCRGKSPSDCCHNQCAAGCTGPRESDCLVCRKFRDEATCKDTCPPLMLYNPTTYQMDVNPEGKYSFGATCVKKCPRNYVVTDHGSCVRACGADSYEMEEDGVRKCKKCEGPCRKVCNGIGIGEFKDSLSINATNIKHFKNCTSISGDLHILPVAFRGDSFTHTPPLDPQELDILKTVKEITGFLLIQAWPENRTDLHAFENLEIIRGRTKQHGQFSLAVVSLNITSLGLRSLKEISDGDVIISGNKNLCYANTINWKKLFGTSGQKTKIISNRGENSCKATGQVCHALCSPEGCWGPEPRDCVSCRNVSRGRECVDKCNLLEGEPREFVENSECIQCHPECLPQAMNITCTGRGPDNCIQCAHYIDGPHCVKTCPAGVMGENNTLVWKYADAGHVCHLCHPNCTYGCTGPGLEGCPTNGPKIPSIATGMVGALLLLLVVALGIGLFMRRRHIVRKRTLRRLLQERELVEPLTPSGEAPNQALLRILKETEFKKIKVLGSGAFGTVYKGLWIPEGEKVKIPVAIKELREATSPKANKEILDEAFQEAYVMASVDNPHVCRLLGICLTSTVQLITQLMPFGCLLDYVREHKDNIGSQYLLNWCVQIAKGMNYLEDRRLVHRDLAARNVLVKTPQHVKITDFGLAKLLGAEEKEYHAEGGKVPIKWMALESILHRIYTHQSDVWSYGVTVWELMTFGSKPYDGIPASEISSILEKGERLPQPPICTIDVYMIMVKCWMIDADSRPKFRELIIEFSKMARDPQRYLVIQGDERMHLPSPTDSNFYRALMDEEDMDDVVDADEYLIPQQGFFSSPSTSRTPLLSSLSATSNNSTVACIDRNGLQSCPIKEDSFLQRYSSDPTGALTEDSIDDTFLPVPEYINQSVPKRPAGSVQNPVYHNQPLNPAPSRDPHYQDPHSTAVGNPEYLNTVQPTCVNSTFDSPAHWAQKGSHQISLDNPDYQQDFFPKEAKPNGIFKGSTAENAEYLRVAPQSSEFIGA
Chain of Ba/F3-FL-EGFR-H773-V774 ins NPH (P00533 with tags, fused parts or gaps DUP771-773): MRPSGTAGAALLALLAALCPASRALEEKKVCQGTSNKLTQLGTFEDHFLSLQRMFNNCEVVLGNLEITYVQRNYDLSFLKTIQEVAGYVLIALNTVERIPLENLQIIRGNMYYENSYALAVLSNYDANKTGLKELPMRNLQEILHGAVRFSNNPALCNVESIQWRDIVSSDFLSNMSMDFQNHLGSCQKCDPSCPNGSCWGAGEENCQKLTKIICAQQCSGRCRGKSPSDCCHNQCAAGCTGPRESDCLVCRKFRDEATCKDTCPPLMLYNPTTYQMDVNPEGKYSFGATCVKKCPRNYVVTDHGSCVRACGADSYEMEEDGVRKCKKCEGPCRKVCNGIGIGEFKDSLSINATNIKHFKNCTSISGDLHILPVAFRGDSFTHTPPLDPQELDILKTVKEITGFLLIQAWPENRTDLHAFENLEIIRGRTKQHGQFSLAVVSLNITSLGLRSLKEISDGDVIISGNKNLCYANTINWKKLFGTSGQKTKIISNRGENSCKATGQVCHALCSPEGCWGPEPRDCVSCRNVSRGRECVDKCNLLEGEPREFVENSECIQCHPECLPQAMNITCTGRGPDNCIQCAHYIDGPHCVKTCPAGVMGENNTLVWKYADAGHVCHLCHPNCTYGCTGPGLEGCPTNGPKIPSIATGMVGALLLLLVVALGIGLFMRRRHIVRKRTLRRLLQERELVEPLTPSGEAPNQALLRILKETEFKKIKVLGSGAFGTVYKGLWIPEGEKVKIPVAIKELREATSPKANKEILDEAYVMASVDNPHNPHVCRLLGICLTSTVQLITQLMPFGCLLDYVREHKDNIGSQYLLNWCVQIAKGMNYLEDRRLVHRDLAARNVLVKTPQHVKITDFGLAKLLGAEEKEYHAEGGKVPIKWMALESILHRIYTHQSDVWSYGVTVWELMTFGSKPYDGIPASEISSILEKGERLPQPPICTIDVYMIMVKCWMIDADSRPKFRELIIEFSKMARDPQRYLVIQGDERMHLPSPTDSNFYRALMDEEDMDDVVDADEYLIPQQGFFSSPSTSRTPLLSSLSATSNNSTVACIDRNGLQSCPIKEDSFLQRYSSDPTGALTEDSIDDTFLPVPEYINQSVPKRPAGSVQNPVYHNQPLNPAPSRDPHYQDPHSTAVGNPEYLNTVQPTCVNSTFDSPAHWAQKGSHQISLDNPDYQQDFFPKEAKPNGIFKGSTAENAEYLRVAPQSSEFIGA
Chain of Ba/F3-FL-EGFR-D770-N771 ins SVD (P00533 with tags, fused parts or gaps DUP768-770): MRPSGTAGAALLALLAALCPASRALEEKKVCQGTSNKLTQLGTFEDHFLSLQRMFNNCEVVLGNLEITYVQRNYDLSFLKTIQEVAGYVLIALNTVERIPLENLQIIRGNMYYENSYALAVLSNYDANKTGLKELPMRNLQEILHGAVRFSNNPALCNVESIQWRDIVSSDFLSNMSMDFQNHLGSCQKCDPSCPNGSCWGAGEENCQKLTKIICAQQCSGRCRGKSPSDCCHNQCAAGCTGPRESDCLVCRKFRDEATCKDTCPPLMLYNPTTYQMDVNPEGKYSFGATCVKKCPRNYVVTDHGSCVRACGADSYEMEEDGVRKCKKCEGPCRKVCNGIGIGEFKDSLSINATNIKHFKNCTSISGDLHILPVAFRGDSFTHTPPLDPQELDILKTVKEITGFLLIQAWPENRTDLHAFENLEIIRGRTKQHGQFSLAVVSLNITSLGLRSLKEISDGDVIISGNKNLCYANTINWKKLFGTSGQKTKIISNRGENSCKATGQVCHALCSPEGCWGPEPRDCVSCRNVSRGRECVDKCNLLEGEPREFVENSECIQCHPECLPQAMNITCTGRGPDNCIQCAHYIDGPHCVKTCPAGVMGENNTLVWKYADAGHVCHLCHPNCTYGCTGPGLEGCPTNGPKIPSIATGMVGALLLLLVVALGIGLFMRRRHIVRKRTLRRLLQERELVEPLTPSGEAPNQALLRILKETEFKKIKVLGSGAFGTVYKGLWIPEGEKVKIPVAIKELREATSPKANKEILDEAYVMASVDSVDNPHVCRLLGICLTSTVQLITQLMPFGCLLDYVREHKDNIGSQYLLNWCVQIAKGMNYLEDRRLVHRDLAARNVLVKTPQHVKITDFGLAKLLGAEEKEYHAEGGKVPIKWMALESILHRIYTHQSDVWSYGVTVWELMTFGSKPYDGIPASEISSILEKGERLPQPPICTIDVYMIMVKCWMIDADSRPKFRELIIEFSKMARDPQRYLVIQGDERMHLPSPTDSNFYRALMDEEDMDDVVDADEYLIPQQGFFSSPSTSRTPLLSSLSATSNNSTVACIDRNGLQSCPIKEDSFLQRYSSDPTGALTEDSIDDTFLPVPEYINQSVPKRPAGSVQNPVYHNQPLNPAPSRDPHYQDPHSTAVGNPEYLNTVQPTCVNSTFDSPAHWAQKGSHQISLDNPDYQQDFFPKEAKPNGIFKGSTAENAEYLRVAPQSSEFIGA

As for `C=CC(=O)Nc1cc(Nc2nccc(Nc3cc(Cl)c(F)cc3C(C)(C)O)n2)c(OC)cc1N1CC[C@@H](N(C)C)C1` [DZD9008, reference compound], in [1], the objective remission rate is listed as 40%. In addition, in [2], the “TGI (%)” value came out at 32.55%. The results for the IC50 in [3] and in [8] were 30 to 100 nM and no more than 30 nM, respectively. Further, the GI50 in [4] was no more than 30 nM; in [5], 30 to 100 nM; in [6], no more than 30 nM; in [7], 30 to 100 nM; in series [9], 30 to 100 nM.
On to `C=CC(=O)Nc1cc(Nc2ncc(C(=O)OC(C)C)c(-c3cn(C)c4ccccc34)n2)c(OC)cc1N(C)CCN(C)C` [TAK-788, reference compound], for which the “TGI (%)” value in [2] came out at 68.03%. The IC50 in [3] and in [8] was no more than 30 nM each time. For the same compound, the objective remission rate in series [10] is 43%. In addition, the GI50 in [4], in series [5], in series [6], in series [7] and in series [9] was no more than 30 nM throughout.
Take `C=CC(=O)Nc1cc(Nc2ncc(C(=O)OC(C)C)c(-c3cn(C)c4ccccc34)n2)c(OC)cc1N(C)[C@@H]1[C@@H]2CN(C)C[C@@H]21` [free base crystalline form I]: in series [11], the hygroscopicity result was “slightly hygroscopic”. In series [11] (at 80% RH), the “weight gain by water absorption” value came to 0.66%. In addition, in series [12], the “stability, change in liquid chromatography results” value is on record as “no change”. Besides, the “stability, change of crystalline form by XRPD” value in [12] was “no significant change”. Further, the solubility in series [13] (organic solvent or mixture, thermodynamic from solid, 1,4-dioxane) was less than 270 µg/mL; in [13] (organic solvent or mixture, thermodynamic from solid, Acetone) it was 2220 to 4440 µg/mL (≈ 3.64 to 7.28 mM); in series [13] (organic solvent or mixture, thermodynamic from solid, Acetonitrile) it was 930 to 1010 µg/mL (≈ 1.53 to 1.66 mM); in series [13] (organic solvent or mixture, thermodynamic from solid, Butanone), 2780 to 4440 µg/mL (≈ 4.56 to 7.28 mM); in [13] (organic solvent or mixture, thermodynamic from solid, Cyclohexane) it was less than 330 µg/mL; in series [13] (organic solvent or mixture, thermodynamic from solid, Dichloroethane), 61800 to 124000 µg/mL (≈ 101 to 203 mM). The solubility in series [13] (organic solvent or mixture, thermodynamic from solid, Dichloromethane) is greater than 107000 µg/mL; in series [13] (organic solvent or mixture, thermodynamic from solid, Dimethylsulfoxide), 2600 to 2930 µg/mL (≈ 4.26 to 4.81 mM); in series [13] (organic solvent or mixture, thermodynamic from solid, Ethanol) it was less than 300 µg/mL; in [13] (organic solvent or mixture, thermodynamic from solid, Ethyl acetate), less than 290 µg/mL; in series [13] (organic solvent or mixture, thermodynamic from solid, Isopropanol), less than 350 µg/mL; in series [13] (organic solvent or mixture, thermodynamic from solid, Isopropyl acetate) it was less than 300 µg/mL. The solubility in series [13] (organic solvent or mixture, thermodynamic from solid, Methanol) is less than 400 µg/mL; in series [13] (organic solvent or mixture, thermodynamic from solid, N-Methyl pyrrolidone), 18200 to 27400 µg/mL (≈ 29.9 to 44.9 mM); in series [13] (organic solvent or mixture, thermodynamic from solid, Tert-butyl methyl ether), less than 330 µg/mL; in series [13] (organic solvent or mixture, thermodynamic from solid, Tetrahydrofuran), 2550 to 3190 µg/mL (≈ 4.18 to 5.23 mM); in series [13] (organic solvent or mixture, thermodynamic from solid, n-Heptane) it was less than 300 µg/mL; in series [13] (thermodynamic from solid, Water), less than 270 µg/mL. In addition, the “solid form after dry grinding” value in series [14] (5 min of dry grinding) is given as “transformed into amorphous state”. Further, the “crystallinity after wet grinding with ethanol” value in series [14] (5 min of wet grinding with ethanol) is recorded as “slight decrease in crystallinity”. Further, the “crystallinity after wet grinding with water” value in series [14] (5 min of wet grinding with water) is recorded as “no significant change in crystallinity”. The “thermodynamic stability versus free base crystalline form V” value in series [15] was “thermodynamically stable crystalline form”. Further, the “crystallinity after tablet pressing” value in series [16] is “crystallinity slightly decreased”.
